Data from ChEMBL document CHEMBL2202996, “Synthesis, evaluation, and radiolabeling of new potent positive allosteric modulators of the metabotropic glutamate receptor 2 as potential tracers for positron emission tomography imaging” (J Med Chem, 2012).

Columns and labels:
[1] = tested on: Thalamus; experiment: Biodistribution in Wistar rat thalamus at 41 MBq, iv measured at 12 to 28 mins post administration by microPET imaging in presence of JNJ-40068782; format: ADME, organism-based; conditions: in vivo
[2] = tested on: Hippocampus; experiment: Biodistribution in Wistar rat hippocampus at 41 MBq, iv measured at 12 to 28 mins post administration by microPET imaging in presence of JNJ-40068782; format: ADME, organism-based; conditions: in vivo
[3] = tested on: Cortex; experiment: Biodistribution in Wistar rat cortex at 41 MBq, iv measured at 12 to 28 mins post administration by microPET imaging in presence of JNJ-40068782; format: ADME, organism-based; conditions: in vivo
[4] = tested on: Cerebellum; experiment: Biodistribution in Wistar rat cerebellum at 41 MBq, iv measured at 12 to 28 mins post administration by microPET imaging in presence of JNJ-40068782; format: ADME, organism-based; conditions: in vivo
[5] = tested on: Striatum; experiment: Biodistribution in Wistar rat striatum at 41 MBq, iv measured at 12 to 28 mins post administration by microPET imaging in presence of JNJ-40068782; format: ADME, organism-based; conditions: in vivo
[6] = tested on: Thalamus; experiment: Biodistribution in Wistar rat thalamus at 41 MBq, iv measured at 12 to 28 mins post administration by microPET imaging; format: ADME, organism-based; conditions: in vivo
[7] = tested on: Hippocampus; experiment: Biodistribution in Wistar rat hippocampus at 41 MBq, iv measured at 12 to 28 mins post administration by microPET imaging; format: ADME, organism-based; conditions: in vivo
[8] = tested on: Cortex; experiment: Biodistribution in Wistar rat cortex at 41 MBq, iv measured at 12 to 28 mins post administration by microPET imaging; format: ADME, organism-based; conditions: in vivo
[9] = tested on: Cerebellum; experiment: Biodistribution in Wistar rat cerebellum at 41 MBq, iv measured at 12 to 28 mins post administration by microPET imaging; format: ADME, organism-based; conditions: in vivo
[10] = tested on: Striatum; experiment: Biodistribution in Wistar rat striatum at 41 MBq, iv measured at 12 to 28 mins post administration by microPET imaging; format: ADME, organism-based; conditions: in vivo
[11] = tested on: Brain; experiment: Biodistribution in Wistar rat brain at 41 MBq, iv measured at 27 mins post administration by microPET imaging; format: ADME, organism-based; conditions: in vivo, 0.45 h
[12] = tested on: Brain; experiment: Biodistribution in Wistar rat brain at 41 MBq, iv measured at 12 mins post administration by microPET imaging; format: ADME, organism-based; conditions: in vivo, 0.2 h
[13] = Metabolic stability in Wistar rat cerebellum assessed as intact tracer at 74 MBq, iv measured at 30 mins post administration by gamma counting; format: ADME, organism-based; conditions: read-out: Stability
[14] = Metabolic stability in Wistar rat cerebrum assessed as intact tracer at 74 MBq, iv measured at 30 mins post administration by gamma counting; format: ADME, organism-based; conditions: read-out: Stability
[15] = Metabolic stability in Wistar rat plasma assessed as intact tracer at 74 MBq, iv measured at 30 mins post administration by gamma counting; format: ADME, organism-based; conditions: read-out: Stability
[16] = tested on: Rattus norvegicus; experiment: Biodistribution in Wistar rat urinary system at 22 Mbq, iv measured at 60 mins post administration by gamma counting; format: ADME, organism-based, Urine; conditions: in vivo, 1 h
[17] = tested on: Liver; experiment: Biodistribution in Wistar rat liver at 22 Mbq, iv measured at 60 mins post administration by gamma counting; format: ADME, organism-based; conditions: in vivo, 1 h
[18] = tested on: Intestine; experiment: Biodistribution in Wistar rat intestine at 22 Mbq, iv measured at 60 mins post administration by gamma counting; format: ADME, organism-based; conditions: in vivo, 1 h
[19] = tested on: Blood; experiment: Biodistribution in Wistar rat blood at 22 Mbq, iv measured at 60 mins post administration by gamma counting; format: ADME, organism-based; conditions: in vivo, 1 h
[20] = tested on: Brain; experiment: Ratio of SUV in total brain in iv dosed Wistar at 2 mins post administration by gamma counting to SUV in total brain in iv dosed Wistar at 30 mins post administration by gamma counting; format: ADME, organism-based; conditions: rat, in vivo
[21] = tested on: Blood; experiment: Biodistribution in Wistar rat blood at 22 Mbq, iv measured at 2 mins post administration by gamma counting; format: ADME, organism-based; conditions: in vivo
[22] = tested on: Cerebellum; experiment: Ratio of SUV in cerebellum in iv dosed Wistar at 2 mins post administration by gamma counting to SUV in cerebellum in iv dosed Wistar at 30 mins post administration by gamma counting; format: ADME, organism-based; conditions: rat, in vivo
[23] = tested on: Cerebrum; experiment: Ratio of SUV in cerebrum in iv dosed Wistar at 2 mins post administration by gamma counting to SUV in cerebrum in iv dosed Wistar at 30 mins post administration by gamma counting; format: ADME, organism-based; conditions: rat, in vivo
[24] = tested on: Cortex; experiment: Ratio of SUV in cortex in iv dosed Wistar at 2 mins post administration by gamma counting to SUV in cortex in iv dosed Wistar at 30 mins post administration by gamma counting; format: ADME, organism-based; conditions: rat, in vivo
[25] = tested on: Hippocampus; experiment: Ratio of SUV in hippocampus in iv dosed Wistar at 2 mins post administration by gamma counting to SUV in hippocampus in iv dosed Wistar at 30 mins post administration by gamma counting; format: ADME, organism-based; conditions: rat, in vivo
[26] = tested on: Striatum; experiment: Ratio of SUV in striatum in iv dosed Wistar at 2 mins post administration by gamma counting to SUV in striatum in iv dosed Wistar at 30 mins post administration by gamma counting; format: ADME, organism-based; conditions: rat, in vivo
[27] = tested on: Brain; experiment: Biodistribution in iv dosed Wistar rat total brain measured at 60 mins post administration by gamma counting; format: ADME, organism-based; conditions: in vivo, 1 h
[28] = tested on: Blood; experiment: Biodistribution in iv dosed Wistar rat blood measured at 60 mins post administration by gamma counting; format: ADME, organism-based; conditions: in vivo, 1 h
[29] = tested on: Cerebellum; experiment: Biodistribution in iv dosed Wistar rat cerebellum measured at 60 mins post administration by gamma counting; format: ADME, organism-based; conditions: in vivo, 1 h
[30] = tested on: Cortex; experiment: Biodistribution in iv dosed Wistar rat cortex measured at 60 mins post administration by gamma counting; format: ADME, organism-based; conditions: in vivo, 1 h
[31] = tested on: Cerebrum; experiment: Biodistribution in iv dosed Wistar rat cerebrum measured at 60 mins post administration by gamma counting; format: ADME, organism-based; conditions: in vivo, 1 h
[32] = tested on: Hippocampus; experiment: Biodistribution in iv dosed Wistar rat hippocampus measured at 60 mins post administration by gamma counting; format: ADME, organism-based; conditions: in vivo, 1 h
[33] = tested on: Blood; experiment: Biodistribution in iv dosed Wistar rat blood measured at 30 mins post administration by gamma counting; format: ADME, organism-based; conditions: in vivo, 0.5 h
[34] = tested on: Striatum; experiment: Biodistribution in iv dosed Wistar rat striatum measured at 60 mins post administration by gamma counting; format: ADME, organism-based; conditions: in vivo, 1 h
[35] = tested on: Brain; experiment: Biodistribution in iv dosed Wistar rat total brain measured at 30 mins post administration by gamma counting; format: ADME, organism-based; conditions: in vivo, 0.5 h
[36] = tested on: Cerebrum; experiment: Biodistribution in iv dosed Wistar rat cerebrum measured at 30 mins post administration by gamma counting; format: ADME, organism-based; conditions: in vivo, 0.5 h
[37] = tested on: Cerebellum; experiment: Biodistribution in iv dosed Wistar rat cerebellum measured at 30 mins post administration by gamma counting; format: ADME, organism-based; conditions: in vivo, 0.5 h
[38] = tested on: Cortex; experiment: Biodistribution in iv dosed Wistar rat cortex measured at 30 mins post administration by gamma counting; format: ADME, organism-based; conditions: in vivo, 0.5 h
[39] = tested on: Hippocampus; experiment: Biodistribution in iv dosed Wistar rat hippocampus measured at 30 mins post administration by gamma counting; format: ADME, organism-based; conditions: in vivo, 0.5 h
[40] = tested on: Blood; experiment: Biodistribution in iv dosed Wistar rat blood measured at 2 mins post administration by gamma counting; format: ADME, organism-based; conditions: in vivo
[41] = tested on: Striatum; experiment: Biodistribution in iv dosed Wistar rat striatum measured at 30 mins post administration by gamma counting; format: ADME, organism-based; conditions: in vivo, 0.5 h
[42] = tested on: Cerebellum; experiment: Biodistribution in iv dosed Wistar rat cerebellum measured at 2 mins post administration by gamma counting; format: ADME, organism-based; conditions: in vivo
[43] = tested on: Brain; experiment: Biodistribution in iv dosed Wistar rat total brain measured at 2 mins post administration by gamma counting; format: ADME, organism-based; conditions: in vivo
[44] = tested on: Cerebrum; experiment: Biodistribution in iv dosed Wistar rat cerebrum measured at 2 mins post administration by gamma counting; format: ADME, organism-based; conditions: in vivo
[45] = tested on: Hippocampus; experiment: Biodistribution in iv dosed Wistar rat hippocampus measured at 2 mins post administration by gamma counting; format: ADME, organism-based; conditions: in vivo
[46] = tested on: Cortex; experiment: Biodistribution in iv dosed Wistar rat cortex measured at 2 mins post administration by gamma counting; format: ADME, organism-based; conditions: in vivo
[47] = tested on: Striatum; experiment: Biodistribution in iv dosed Wistar rat striatum measured at 2 mins post administration by gamma counting; format: ADME, organism-based; conditions: in vivo
[48] = tested on: Cerebellum; experiment: Biodistribution in Wistar rat cerebellum at 22 Mbq, iv measured at 2 mins post administration by gamma counting; format: ADME, organism-based; conditions: in vivo
[49] = tested on: Cerebrum; experiment: Biodistribution in Wistar rat cerebrum at 22 Mbq, iv measured at 2 mins post administration by gamma counting; format: ADME, organism-based; conditions: in vivo
[50] = tested on: Brain; experiment: Biodistribution in Wistar rat brain at 22 Mbq, iv measured at 2 mins post administration by gamma counting; format: ADME, organism-based; conditions: in vivo

With [11CH3]Oc1c(F)ccc(F)c1C1CCN(c2ccn3c(CC4CC4)nnc3c2Cl)CC1 the Drug uptake [1] was “Not Active”, the Drug uptake [2] was “Not Active” and the Drug uptake [3] was “Not Active”. The Drug uptake [4] was “Not Active”, the Drug uptake [5] was “Not Active” and the Drug uptake [6] was “Active”. For the same molecule, the Drug uptake [7] was “Active”, the Drug uptake [8] was “Active” and the Drug uptake [9] was “Active”. For the same molecule, the Drug uptake [10] was “Active”, the SUV [11] was 1.7 and the SUV [12] was 1.7. It also gave a remaining at 0.5 h [13] of 95.5%, a remaining at 0.5 h [14] of 90.3% and a remaining at 0.5 h [15] of 69.7%. The Drug uptake [16] was 2.4 %ID, the Drug uptake [17] was 35.7% and the Drug uptake [18] was 35.7%. The Drug uptake [19] was 2 %ID, the Ratio [20] was 0.65 and the Drug uptake [21] was 4.3 %ID. It also gave a Ratio [22] of 0.61, a Ratio [23] of 0.67 and a Ratio [24] of 0.82. For the same molecule, the Ratio [25] was 0.6, the Ratio [26] was 0.57 and the SUV [27] was 1.18. For the same molecule, the SUV [28] was 0.28, the SUV [29] was 1.75 and the SUV [30] was 1.28. The SUV [31] was 1.11, the SUV [32] was 0.73 and the SUV [33] was 0.39. It also gave an SUV [34] of 1.72, an SUV [35] of 2.13 and an SUV [36] of 1.96. It also gave an SUV [37] of 2.62, an SUV [38] of 1.77 and an SUV [39] of 1.49. The SUV [40] was 0.61, the SUV [41] was 2.14 and the SUV [42] was 1.59. It also gave an SUV [43] of 1.39, an SUV [44] of 1.32 and an SUV [45] of 0.9. The SUV [46] was 1.46, the SUV [47] was 1.22 and the Drug uptake [48] was 0.17 %ID. The Drug uptake [49] was 0.69 %ID and the Drug uptake [50] was 0.88 %ID.
